This is an account of results in patent publication US8921552B2, “Benzothiazole hybrids useful as anticancer agents and process for the preparation thereof” (Council of Scientific & Industrial Research, priority 2011, dated 2014).

In one data set the test system is SF-295. The data set can be described thus: In vitro cytotoxicity, SRB assay, CNS cancer cell line SF-295. Format: cell-based, human. Particulars: Homo sapiens; SF-295 (CNS), 10 μM, 48 h exposure; read-out: % of growth inhibition. The text has this:
(§1) The benzothiazole hybrids has been tested against seven human tumor cell lines derived from six cancer types (lung cancer, colon cancer, CNS cancer, ovarian cancer, prostate cancer and breast cancer). For these compounds results are expressed as percent of cell growth inhibition relative to that of untreated control cells.
Background: In SRB staining, fixed cells bind dye roughly in proportion to their protein.

A further data set concerns IGR-OV-1. The data set can be described thus: In vitro cytotoxicity, SRB assay, ovarian cancer cell line IGR-OV-1. Format: cell-based, human. Particulars: Homo sapiens, IGROV-1; IGR-OV-1 (ovarian), 10 μM, 48 h exposure; read-out: % of growth inhibition.
Source text: as §1

A further data set deals with human tumor cell lines. The data set can be described thus: In vitro anticancer activity, panel of seven human tumor cell lines (SRB assay). Format: cell-based. Particulars: for inhibition at 10 µM: Homo sapiens, range over the cell lines, exposure period of at least 48 hrs, read-out: percentage growth inhibition for invitro anticancer activity; for cytotoxic activity in words: various human tumour cell lines. The method, then:
(§2) The benzothiazole hybrids has been tested against seven human tumor cell lines derived from six cancer types (lung cancer, colon cancer, CNS cancer, ovarian cancer, prostate cancer and breast cancer). For these compounds results are expressed as percent of cell growth inhibition relative to that of untreated control cells. A protocol of 48 h continuous drug exposure has been used, and a sulforhodamine B (SRB) protein assay was used to estimate cell viability or growth.
(§3) The compounds 9b, 9h, 9m, 9r, 15c, 15h, 15m, 15r, 10b, 10h, 10m, 10r, 16c, 16h and 16m were evaluated for in vitro anticancer activity against seven human tumor cells derived from six cancer types (lung cancer, colon cancer, CNS cancer, ovarian cancer, prostate cancer and breast cancer) at concentration of 10 μM and the results are shown in Table 1.

The subject of another data set is A-549. The data set can be described thus: In vitro cytotoxicity, SRB assay, lung cancer cell line A-549. Format: cell-based, human. Particulars: Homo sapiens, A549; A-549 (lung), 10 μM, 48 h exposure; read-out: % of growth inhibition.
Source text: as §1

Another data set deals with MCF7. Briefly: In vitro cytotoxicity, SRB assay, breast cancer cell line MCF7. It counts as cell-based, human. Particulars: Homo sapiens, 10 μM, 48 h exposure, read-out: % of growth inhibition.
Source text: as §1

A further data set relates to SW-620. Briefly: In vitro cytotoxicity, SRB assay, colon cancer cell line SW-620. It counts as cell-based. Particulars: Homo sapiens, SW-620 (colon), 48 h exposure, read-out: % of growth inhibition. The method, then: as §2, §3
The next data set deals with PC-3. Briefly: In vitro cytotoxicity, SRB assay, prostate cancer cell line PC-3. It counts as cell-based, human. Particulars: Homo sapiens; PC-3 (prostate), 10 μM, 48 h exposure; read-out: % of growth inhibition.
Source text: as §1

For `COc1ccc(/C=C\c2cc(OC)c(OC)c(OC)c2)cc1OCCCCOc1cccc(-c2nc3ccccc3s2)c1` [Compound 9r, 2-[3-(4-{2-methoxy-5-[(Z)-2-(3,4,5-trimethoxyphenyl)-1-ethenyl]phenoxy}butoxy)phenyl]-1,3-benzothiazole], the inhibition at 10 µM in the data set on SF-295 is 71%; in the data set on IGR-OV-1 it was 48%; in the data set on human tumor cell lines, 1 to 100%; with A-549, 59%; in the data set on MCF7, 52%; in the data set with SW-620 it was 22%. Besides, the inhibition at 10 µM with PC-3 came to 59%.
Take `COc1cc(-c2nc3ccccc3s2)ccc1OCCCOc1cc(/C=C/C(=O)c2cc(OC)c(OC)c(OC)c2)ccc1OC` [Compound 10b, (E)-3-(3-{3-[4-(1,3-benzothiazol-2-yl)-2-methoxyphenoxy]propoxy}-4-methoxyphenyl)-1-(3,4,5-trimethoxyphenyl)-2-propen-1-one]: the inhibition at 10 µM was 51% with SF-295; 21% with IGR-OV-1; 1 to 100% in the data set on human tumor cell lines; 66% with A-549; 19% in the data set on MCF7; 0% in the data set with SW-620. Further, the inhibition at 10 µM in the data set on PC-3 worked out at 5%.
As for `COc1ccc(/C=C/C(=O)c2cc(OC)c(OC)c(OC)c2)cc1OCCCCOc1ccc(-c2nc3ccccc3s2)cc1` [Compound 10h, (E)-3-(3-{4-[4-(1,3-benzothiazol-2-yl)phenoxy]butoxy}-4-methoxyphenyl)-1-(3,4,5-trimethoxyphenyl)-2-propen-1-one], the inhibition at 10 µM with SF-295 was 38%; with IGR-OV-1, 17%; in the data set on human tumor cell lines it was 1 to 100%; in the data set with A-549, 31%; in the data set on MCF7 it was 9%; in the data set on SW-620, 2%. The inhibition at 10 µM in the data set with PC-3 is 6%.
As for `COc1ccc(/C=C/C(=O)c2cc(OC)c(OC)c(OC)c2)cc1OCCCCOc1cc(-c2nc3ccccc3s2)ccc1OC` [Compound 10m, (E)-3-(3-{4-[5-(1,3-benzothiazol-2-yl)-2-methoxyphenoxy]butoxy}-4-methoxyphenyl)-1-(3,4,5-trimethoxyphenyl)-2-propen-1-one], the inhibition at 10 µM in the data set on SF-295 was 14%; in the data set with IGR-OV-1, 17%; in the data set on human tumor cell lines it was 1 to 100%; with A-549 it was 7%; in the data set with MCF7 it was 24%; in the data set on SW-620, 27%. For the same compound, the inhibition at 10 µM in the data set with PC-3 was 0%.
As for `COc1ccc(/C=C/C(=O)c2cc(OC)c(OC)c(OC)c2)cc1OCCCCOc1cccc(-c2nc3ccccc3s2)c1` [Compound 10r, (E)-3-(3-{4-[3-(1,3-benzothiazol-2-yl)phenoxy]butoxy}-4-methoxyphenyl)-1-(3,4,5-trimethoxyphenyl)-2-propen-1-one], the inhibition at 10 µM was 21% in the data set on SF-295; 0% in the data set with IGR-OV-1; 1 to 100% in the data set with human tumor cell lines; 41% with A-549; 14% with MCF7; 0% with SW-620. The inhibition at 10 µM with PC-3 came to 1%.
`COc1cc(-c2nc3ccccc3s2)ccc1OCCCCN1CCN(CCCCOc2cc(/C=C\c3cc(OC)c(OC)c(OC)c3)ccc2OC)CC1` [Compound 15c, 2-[3-methoxy-4-({4-[4-(4-{2-methoxy-5-[(Z)-2-(3,4,5-trimethoxyphenyl)-1-ethenyl]phenoxy}butyl)piperazino]butyl}oxy)phenyl]-1,3-benzothiazole]: the inhibition at 10 µM with SF-295 is 99%; in the data set on IGR-OV-1, 95%; in the data set on human tumor cell lines, 1 to 100%; with A-549 it was 88%; with MCF7 it was 95%; in the data set on SW-620, 86%. For the same compound, the inhibition at 10 µM in the data set with PC-3 was determined as 53%. Besides, the “cytotoxic activity in words” value in the data set with human tumor cell lines is given as “increase in activity”.
For `COc1ccc(/C=C\c2cc(OC)c(OC)c(OC)c2)cc1OCCCCN1CCN(CCCCOc2ccc(-c3nc4ccccc4s3)cc2)CC1` [Compound 15h, 2-[4-({4-[4-(4-{2-methoxy-5-[(Z)-2-(3,4,5-trimethoxyphenyl)-1-ethenyl]phenoxy}butyl)piperazino]butyl}oxy)phenyl]-1,3-benzothiazole], the inhibition at 10 µM in the data set on SF-295 is 98%; in the data set on IGR-OV-1, 83%; in the data set with human tumor cell lines, 1 to 100%; with A-549 it was 91%; in the data set with MCF7, 93%; in the data set on SW-620, 72%. In addition, in the data set with PC-3, the inhibition at 10 µM amounted to 96%. Also, the “cytotoxic activity in words” value with human tumor cell lines is given as “increase in activity”.
Turning to `COc1ccc(/C=C\c2cc(OC)c(OC)c(OC)c2)cc1OCCCCN1CCN(CCCCOc2cc(-c3nc4ccccc4s3)ccc2OC)CC1` [Compound 15m, 2-[4-methoxy-3-({4-[4-(4-{2-methoxy-5-[(Z)-2-(3,4,5-trimethoxyphenyl)-1-ethenyl]phenoxy}butyl)piperazino]butyl}oxy)phenyl]-1,3-benzothiazole], the inhibition at 10 µM in the data set with SF-295 was 98%; with IGR-OV-1, 99%; with human tumor cell lines, 1 to 100%; with A-549 it was 100%; with MCF7, 97%; in the data set on SW-620, 99%. For the same compound, the inhibition at 10 µM in the data set on PC-3 came out at 60%. Also, the “cytotoxic activity in words” value in the data set with human tumor cell lines is recorded as “increase in activity”.
In the case of `COc1ccc(/C=C\c2cc(OC)c(OC)c(OC)c2)cc1OCCCCN1CCN(CCCCOc2cccc(-c3nc4ccccc4s3)c2)CC1` [Compound 15r, 2-[3-({4-[4-(4{-2-methoxy-5-[(Z)-2-(3,4,5-trimethoxyphenyl)-1-ethenyl]phenoxy}butyl)piperazino]butyl}oxy)phenyl]-1,3-benzothiazole], the inhibition at 10 µM is 98% with SF-295; 92% in the data set with IGR-OV-1; 1 to 100% with human tumor cell lines; 96% with A-549; 88% in the data set on MCF7; 99% in the data set on SW-620. Further, the inhibition at 10 µM in the data set with PC-3 was determined as 70%. For the same compound, the “cytotoxic activity in words” value in the data set on human tumor cell lines is listed as “increase in activity”.
In the case of `COc1cc(-c2nc3ccccc3s2)ccc1OCCCCN1CCN(CCCCOc2cc(/C=C/C(=O)c3cc(OC)c(OC)c(OC)c3)ccc2OC)CC1` [Compound 16c, (E)-3-(3{-[4-(4-{4-[4-(1,3-benzothiazol-2-yl)-2-methoxyphenoxy]butyl}piperazino)butyl]oxy}-4-methoxyphenyl)-1-(3,4,5-trimethoxyphenyl)-2-propen-1-one], the inhibition at 10 µM in the data set with SF-295 was 24%; with IGR-OV-1, 67%; with human tumor cell lines, 1 to 100%; in the data set on A-549 it was 58%; with MCF7, 69%; with SW-620, 0%. Moreover, the inhibition at 10 µM in the data set on PC-3 came out at 24%.
On to `COc1ccc(/C=C/C(=O)c2cc(OC)c(OC)c(OC)c2)cc1OCCCCN1CCN(CCCCOc2ccc(-c3nc4ccccc4s3)cc2)CC1` [Compound 16h, (E)-3-(3{-[4-(4-{4-[4-(1,3-benzothiazol-2-yl)phenoxy]butyl}piperazino)butyl]oxy}-4-methoxyphenyl)-1-(3,4,5-trimethoxyphenyl)-2-propen-1-one], for which the inhibition at 10 µM in the data set on SF-295 is 63%; in the data set with IGR-OV-1 it was 73%; in the data set with human tumor cell lines, 1 to 100%; in the data set on A-549 it was 59%; with MCF7, 84%; with SW-620, 0%. For the same compound, the inhibition at 10 µM with PC-3 was determined as 67%.
In the case of `COc1ccc(/C=C/C(=O)c2cc(OC)c(OC)c(OC)c2)cc1OCCCCN1CCN(CCCCOc2cc(-c3nc4ccccc4s3)ccc2OC)CC1` [Compound 16m, (E)-3-(3{-[4-(4-{4-[5-(1,3-benzothiazol-2-yl)-2-methoxyphenoxy]butyl}piperazino)butyl]oxy}-4-methoxyphenyl)-1-(3,4,5-trimethoxyphenyl)-2-propen-1-one], the inhibition at 10 µM in the data set with SF-295 is 15%; in the data set on IGR-OV-1, 85%; with human tumor cell lines, 1 to 100%; with A-549, 100%; in the data set on MCF7, 57%; in the data set with SW-620 it was 0%. Moreover, the inhibition at 10 µM in the data set on PC-3 worked out at 2%.

A word on the inhibition: it is the drop in the measured response relative to a control, in per cent.
